Publication PMC4472245, “Alternative divalent cations (Zn^2+, Co^2+, and Mn^2+) are not mutagenic at conditions optimal for HIV-1 reverse transcriptase activity” (BMC Biochemistry, 2015)
Read-outs that look alike come from different tables or passages of the source.

Legend:
[1] = target: T1, HIV RT (HIV-1 reverse transcriptase, p66/p51) (HIV-1 M:B_HXB2R, UniProt P04585); conditions: read-out: ^d K m / μM, 0.4 mM free Zn2+ instead of Mg2+, DNA primer-template, pH 7.7, 37 °C
T1 construct: gene gag-pol
Description: steady-state running-start incorporation, gel on HIV RT (HIV-1 reverse transcriptase, p66/p51)

[2] = target: T1, HIV RT (HIV-1 reverse transcriptase, p66/p51); conditions: read-out: ^d K m / μM; 0.4 mM free Zn2+ instead of Mg2+; DNA primer-template with matched C.G 3' end; next correct nucleotide; pH 7.7, 37 °C, 80 mM KCl

**Q.** For `Nc1ncnc2c1ncn2[C@H]1C[C@H](O)[C@@H](COP(=O)(O)OP(=O)(O)OP(=O)(O)O)O1` [dATP], which Km ([1]; misinsertion opposite template C (C.A mismatch)) is on record?
**A.** Its Km is 518 ± 43 µM.

**Q.** For `Nc1ccn([C@H]2C[C@H](O)[C@@H](COP(=O)(O)OP(=O)(O)OP(=O)(O)O)O2)c(=O)n1` [dCTP], which Km [2] is on record?
**A.** Its Km is 0.04 ± 0.01 µM.

**Q.** How did the Km ([1]; correct insertion opposite template C (C.G), 55 μM dATP) turn out when `Nc1nc2c(ncn2[C@H]2C[C@H](O)[C@@H](COP(=O)(O)OP(=O)(O)OP(=O)(O)O)O2)c(=O)[nH]1` [dGTP] was run?
**A.** The Km was 0.19 ± 0.09 µM.

**Q.** With `Cc1cn([C@H]2C[C@H](O)[C@@H](COP(=O)(O)OP(=O)(O)OP(=O)(O)O)O2)c(=O)[nH]c1=O` [dTTP] as the molecule, how does the Km ([1]; misinsertion opposite template C (C.T mismatch), 55 μM dATP) read?
**A.** The Km was 244 ± 102 µM.
